Assay type in all cases: physicochemical
Data set [1] can be described thus: Solid state by X-ray powder diffraction. The following applies: * indicates absence of crystalline API; monohydrochloride. The text has this:
Bragg's law describes the diffraction of crystalline material with the equation “2d·sin(theta)=n·lambda”, wherein “d” denotes perpendicular distance (in Angstroms) between pairs of adjacent planes in a crystal (“d-spacing”), “theta” denotes the Bragg angle, “lambda” denotes the wavelength and “n” is an integer. When Bragg's law is fulfilled, the reflected beams are in phase and interfere constructively so that Bragg diffraction peaks are observed in the X-ray diffraction pattern. At angles of incidence other than the Bragg angle, reflected beams are out of phase and destructive interference or cancellation occurs. […] The XRPD pattern of an amorphous material is further characterized by one or more amorphous halos.
The term “XRPD” denotes the analytical method of X-Ray Powder Diffraction. The repeatability of the angular values is in the range of 2Theta±0.2°, more particularly in the range of 2Theta±0.1°. The term “approximately” given in combination with an angular value denotes the variance which is in the range of 2Theta±0.2°, particularly in the range of 2Theta±0.1°. The relative XRPD peak intensity is dependent upon many factors such as structure factor, temperature factor, crystallinity, polarization factor, multiplicity, and Lorentz factor. Relative intensities may vary considerably from one measurement to another due to preferred orientation effects. According to USP 941 (US Pharmacopoeia, 37th Edition, General Chapter 941), relative intensities between two samples of the same material may vary considerably due to “preferred orientation” effects. Anisotropic materials adopting preferred orientation will lead to anisotropic distribution of properties such as modulus, strength, ductility, toughness, electrical conductivity, thermal expansion, etc., as described e.g. in Kocks U. F. et al. (Texture and Anisotropy: Preferred Orientations in Polycrystals and Their Effect on Materials Properties, Cambridge University Press, 2000). In XRPD but also Raman spectroscopy, preferred orientations cause a change in the intensity distribution. Preferred orientation effects are particularly pronounced with crystalline APIs of relatively large particle size.

Data set [2] can be described thus: Particle size distribution (d10, d50, d90) by laser diffraction. The following applies: spray dried amorphous ipatasertib monohydrochloride powder. The text has this: FIG. 6 illustrates particle size distribution of the material of Example 6C (Batch HQ00003) spray dried with two-feed nozzle as obtained by laser diffraction A bimodal particle size distribution is obvious. FIG. 9 illustrates particle size distribution of spray dried material with rotary wheel nozzle, i.e. of the material of batch BS1506SA03 of Example 13 (Table 20) obtained using a Malvern Mastersizer 2000 equipped with Hydro 2000S wet sample dispersion unit (Malvern Instruments Ltd, Malvern/UK). A monomodal particle size distribution is obvious. The terms “d50 value” (sometimes also referred to as “d(0.5)-value”) and “mass-median diameter” (or MMD) can be used interchangeably and denote the average particle size by mass, i.e. the average equivalent diameter of a particle, which is defined as the diameter where 50% (w) of the particles of the ensemble have a larger equivalent spherical diameter, and the other 50% (w) have a smaller equivalent spherical diameter. In analogy, the term “d10-value” denotes the particle diameter wherein 10% (w) of the particles of the ensemble have a smaller equivalent spherical diameter. In analogy, the term “d90-value” denotes the particle diameter wherein 90% (w) of the particles of the ensemble have a smaller equivalent spherical diameter.

A short description of data set [3]: Bulk density, tapped density and Carr index. The following applies: spray dried amorphous ipatasertib monohydrochloride powder; monohydrochloride.

Where a name gives a salt, the structure may show the parent alone.

Take `CC(C)NC[C@@H](C(=O)N1CCN(c2ncnc3c2[C@H](C)C[C@H]3O)CC1)c1ccc(Cl)cc1` [Composition 130710452, ipatasertib monohydrochloride]: the “Solid state / Polymorphy (X-Ray, XRPD)” value in data set [1] is “Amorphous*”. Moreover, in data set [2], the “Particle size d10” value came to 8.4 μm, the “Particle size d50” value is on record as 21 μm and the “Particle size d90” value came to 42 μm. In data set [3], the Bulk density amounted to 0.32 gcm^−3 and the Tapped density amounted to 0.47 gcm^−3.
Regarding `CC(C)NC[C@@H](C(=O)N1CCN(c2ncnc3c2[C@H](C)C[C@H]3O)CC1)c1ccc(Cl)cc1` [Composition 140110402, ipatasertib monohydrochloride], in data set [1], the “Solid state / Polymorphy (X-Ray, XRPD)” value is listed as “amorphous*”. Besides, in data set [2], the “Particle size d10” value amounted to 7 μm, the “Particle size d50” value was found to be 20 μm and the “Particle size d90” value was found to be 46 μm. Besides, in data set [3], the Bulk density worked out at 0.45 gcm^−3 and the Tapped density stood at 0.60 gcm^−3.
Regarding `CC(C)NC[C@@H](C(=O)N1CCN(c2ncnc3c2[C@H](C)C[C@H]3O)CC1)c1ccc(Cl)cc1` [Composition 141210426, ipatasertib monohydrochloride], the “Solid state / Polymorphy (X-Ray, XRPD)” value in data set [1] is “amorph.*”. In data set [2], the “Particle size d10” value is listed as 8.5 μm, the “Particle size d50” value was found to be 21 μm and the “Particle size d90” value is listed as 43 μm. In data set [3], this molecule yielded a Bulk density of 0.24 gcm^−3 and a Tapped density of 0.37 gcm^−3.
Take `CC(C)NC[C@@H](C(=O)N1CCN(c2ncnc3c2[C@H](C)C[C@H]3O)CC1)c1ccc(Cl)cc1` [Composition 141210423, ipatasertib monohydrochloride]: the “Solid state / Polymorphy (X-Ray, XRPD)” value in data set [1] is “amorph.*”. In addition, in data set [2], the “Particle size d10” value was 10 μm, the “Particle size d50” value was 28 μm and the “Particle size d90” value was found to be 56 μm. Further, in data set [3], the Bulk density is 0.39 gcm^−3 and the Tapped density is reported as 0.55 gcm^−3.
In the case of `CC(C)NC[C@@H](C(=O)N1CCN(c2ncnc3c2[C@H](C)C[C@H]3O)CC1)c1ccc(Cl)cc1` [Composition 141210422, ipatasertib monohydrochloride], the “Solid state / Polymorphy (X-Ray, XRPD)” value in data set [1] is given as “amorph.*”. For the same molecule, in data set [2], the “Particle size d10” value worked out at 9.6 μm, the “Particle size d50” value came out at 27 μm and the “Particle size d90” value is 54 μm. In data set [3], this molecule returned a Bulk density of 0.37 gcm^−3 and a Tapped density of 0.54 gcm^−3.
In the case of `CC(C)NC[C@@H](C(=O)N1CCN(c2ncnc3c2[C@H](C)C[C@H]3O)CC1)c1ccc(Cl)cc1` [Composition 140210413, ipatasertib monohydrochloride], the “Solid state / Polymorphy (X-Ray, XRPD)” value in data set [1] is listed as “amorphous*”. For the same molecule, in data set [2], the “Particle size d10” value is on record as 10 μm, the “Particle size d50” value was determined as 28 μm and the “Particle size d90” value is recorded as 56 μm. Further, in data set [3], the Bulk density worked out at 0.45 gcm^−3 and the Tapped density amounted to 0.59 gcm^−3.
As to `CC(C)NC[C@@H](C(=O)N1CCN(c2ncnc3c2[C@H](C)C[C@H]3O)CC1)c1ccc(Cl)cc1` [Composition 140110409, ipatasertib monohydrochloride], the “Solid state / Polymorphy (X-Ray, XRPD)” value in data set [1] is recorded as “amorphous*”. In data set [2], the “Particle size d10” value came to 11.3 μm, the “Particle size d50” value turned out to be 35 μm and the “Particle size d90” value stood at 79 μm. Moreover, in data set [3], the Bulk density is 0.27 gcm^−3 and the Tapped density came to 0.39 gcm^−3.
As to `CC(C)NC[C@@H](C(=O)N1CCN(c2ncnc3c2[C@H](C)C[C@H]3O)CC1)c1ccc(Cl)cc1` [Composition 140110407, ipatasertib monohydrochloride], the “Solid state / Polymorphy (X-Ray, XRPD)” value in data set [1] was “amorphous*”. Further, in data set [2], the “Particle size d10” value was 7.1 μm, the “Particle size d50” value came out at 16 μm and the “Particle size d90” value was 28 μm. In data set [3], the Bulk density was 0.29 gcm^−3 and the Tapped density was 0.43 gcm^−3.
For the molecule `CC(C)NC[C@@H](C(=O)N1CCN(c2ncnc3c2[C@H](C)C[C@H]3O)CC1)c1ccc(Cl)cc1` [Composition 141210421, ipatasertib monohydrochloride], the “Solid state / Polymorphy (X-Ray, XRPD)” value in data set [1] is “amorph.*”. In data set [2], the “Particle size d10” value is on record as 10 μm, the “Particle size d50” value is on record as 28 μm and the “Particle size d90” value is 56 μm. Also, in data set [3], the Bulk density worked out at 0.38 gcm^−3 and the Tapped density is reported as 0.55 gcm^−3.
Take `CC(C)NC[C@@H](C(=O)N1CCN(c2ncnc3c2[C@H](C)C[C@H]3O)CC1)c1ccc(Cl)cc1` [Composition 140110410, ipatasertib monohydrochloride]: the “Solid state / Polymorphy (X-Ray, XRPD)” value in data set [1] is given as “amorphous*”. Moreover, in data set [2], the “Particle size d10” value is 8.1 μm, the “Particle size d50” value was 23 μm and the “Particle size d90” value was determined as 50 μm. In data set [3], the Bulk density is on record as 0.18 gcm^−3 and the Tapped density came to 0.30 gcm^−3.
Regarding `CC(C)NC[C@@H](C(=O)N1CCN(c2ncnc3c2[C@H](C)C[C@H]3O)CC1)c1ccc(Cl)cc1` [Composition 140110405, ipatasertib monohydrochloride], the “Solid state / Polymorphy (X-Ray, XRPD)” value in data set [1] is listed as “amorphous*”. Moreover, in data set [2], the “Particle size d10” value was found to be 9.3 μm, the “Particle size d50” value amounted to 26 μm and the “Particle size d90” value is on record as 57 μm. In data set [3], this molecule returned a Bulk density of 0.28 gcm^−3 and a Tapped density of 0.40 gcm^−3.
Consider `CC(C)NC[C@@H](C(=O)N1CCN(c2ncnc3c2[C@H](C)C[C@H]3O)CC1)c1ccc(Cl)cc1` [Composition 140110401, ipatasertib monohydrochloride], for which the “Solid state / Polymorphy (X-Ray, XRPD)” value in data set [1] is “amorphous*”. For the same molecule, in data set [2], the “Particle size d10” value amounted to 11.4 μm, the “Particle size d50” value stood at 31 μm and the “Particle size d90” value stood at 64 μm. For the same molecule, in data set [3], the Bulk density is 0.47 gcm^−3 and the Tapped density is 0.61 gcm^−3.
Regarding `CC(C)NC[C@@H](C(=O)N1CCN(c2ncnc3c2[C@H](C)C[C@H]3O)CC1)c1ccc(Cl)cc1` [Composition 140110411, ipatasertib monohydrochloride], the “Solid state / Polymorphy (X-Ray, XRPD)” value in data set [1] is “amorphous*”. In data set [2], the “Particle size d10” value came out at 9.2 μm, the “Particle size d50” value is listed as 27 μm and the “Particle size d90” value is reported as 58 μm. In data set [3], this molecule registered a Bulk density of 0.37 gcm^−3 and a Tapped density of 0.51 gcm^−3.
As for `CC(C)NC[C@@H](C(=O)N1CCN(c2ncnc3c2[C@H](C)C[C@H]3O)CC1)c1ccc(Cl)cc1` [Composition 130810454, ipatasertib monohydrochloride], the “Solid state / Polymorphy (X-Ray, XRPD)” value in data set [1] is given as “Amorphous*”. Also, in data set [2], the “Particle size d10” value was determined as 12 μm, the “Particle size d50” value was determined as 36 μm and the “Particle size d90” value was 72 μm. For the same molecule, in data set [3], the Bulk density is 0.47 gcm^−3 and the Tapped density came to 0.61 gcm^−3.
Turning to `CC(C)NC[C@@H](C(=O)N1CCN(c2ncnc3c2[C@H](C)C[C@H]3O)CC1)c1ccc(Cl)cc1` [Composition 140210414, ipatasertib monohydrochloride], the “Solid state / Polymorphy (X-Ray, XRPD)” value in data set [1] is “amorphous*”. In data set [2], the “Particle size d10” value was 18 μm, the “Particle size d50” value turned out to be 53 μm and the “Particle size d90” value is listed as 109 μm. Further, in data set [3], the Bulk density worked out at 0.48 gcm^−3 and the Tapped density is given as 0.57 gcm^−3.

The values above are taken from US12440492B2, “Pharmaceutical compositions comprising AKT protein kinase inhibitors” (Genentech, Inc., priority 2016, dated 2025).
